Assay results from ChEMBL document CHEMBL3507680, “University of Dundee, Gates Library screen for HepG2 cell viability”.

Assay: Human HepG2 cell viability assay in 384 well format
Assay type: toxicity, cell-based
Set-up: dose 125 nL, time 70.5 hour; cytotoxicity at 70.5 h: concentration not given beside the values
Details: HepG2 cells, read-out: Inhibition

| SMILES | cytotoxicity at 70.5 h [%] |
| --- | --- |
| Cc1ccc(OCCCC(=O)NC(C)c2nnc3n2CCC3)cc1 (stereo not drawn) | -0.817 |
| CC(=O)N1CCC(N2CCN3C(=O)N(c4ccccc4)C[C@H]3C2)CC1 | 3.66 |
| c1cnc(N2C[C@H]3CCN(Cc4ccncc4)C[C@H]3C2)nc1 | -7.09 |
| CC(C)N1CCO[C@H]2CN(C(=O)c3ccsc3)C[C@H]21 | -7.23 |
| CCN(Cc1cc(Cl)ccc1OC)Cc1ncnn1CC | 1.58 |
| Cc1[nH]c2c(C)ccc(C)c2c1CC(=O)NCCCNc1cccnc1 | -9.64 |
| CCOc1ccc(Cl)c(C(=O)NCCS(N)(=O)=O)n1 | 22 |
| CCN1CCOCC12CCN(C(=O)c1ccsc1)CC2 | -7.84 |
| CCOC(=O)N1CCN(c2nc(N)c3ccccc3n2)CC1 | -7.74 |
| Cn1cc(CN2C[C@@H]3CCCO[C@@H]3[C@H](N3CCCC3=O)C2)cn1 | -4.04 |
| Cc1ccc(CCC(=O)N(C)CCN2CCOCC2)c(C)c1 | -0.456 |
| CCc1ccccc1C(=O)NS(=O)(=O)CCCC#N | 10.5 |
| N#CC1(NC(=O)Cc2cc(Cl)c3c(c2)OCCO3)CCC1 | -10.5 |
| Cc1cc2c(=O)n3c(nc2s1)CCN(C(=O)c1ccn(C)n1)CC3 | -5.05 |
| Cc1nc(CN2CCC3(CC2)CCN(C(=O)c2cscn2)C3)cs1 | -13.7 |
| Cn1nc(C(=O)N2CCSCC2)cc1NC(=O)c1ccco1 | -5.7 |
| CCC(CO)N(Cc1cccs1)C(=O)CSC (stereo not drawn) | 11.9 |
| Cc1nc(CNCC2CN(C)CCO2)cs1 (stereo not drawn) | -4.42 |
| CN1CCC(N[C@@H]2CO[C@H](CNC(=O)Nc3ccccc3)[C@H]2O)CC1 | -2.44 |
| Cc1ccc(C(=O)N2CCOC(c3nc(-c4ncccn4)no3)C2)cc1 (stereo not drawn) | -2.85 |
| CC(C)n1ccnc1C1CCCN(c2nc3ccccc3s2)C1 (stereo not drawn) | 2.12 |
| Cc1cc(C(=O)NC2CCN(c3ncccc3C#N)CC2)no1 | -2.85 |
| Cn1nc(Cn2ccnc2)c2c1CN(Cc1ccoc1)C2 | 24.7 |

| SMILES | cytotoxicity at 70.5 h [%] |
| --- | --- |
| CSc1ncc(C(=O)N2CCN(c3ccccc3C)CC2C)cn1 (stereo not drawn) | -2.82 |
| CC(O)CN1CCN(Cc2coc(-c3ccccc3)n2)CC1 (stereo not drawn) | -7.79 |
| NC(=O)CN1CCCC(C(=O)N2CCC(O)(Cc3ccccc3)CC2)C1 (stereo not drawn) | -9.61 |
| Clc1cccc(-c2nc(CNC3CCc4ncnn4C3)co2)c1 (stereo not drawn) | 11.6 |
| O=C1CC(NCc2cccc(O)c2)CN1CCc1cccc(Cl)c1 (stereo not drawn) | 14.8 |
| COc1ccc(CN(C)CC2(O)CCNC2)cc1 (stereo not drawn) | 0.252 |
| CCc1nc(CNC(C)Cn2cccn2)cs1 (stereo not drawn) | -11.9 |
| O=C1NCCN2CCN(Cc3ccc(Cl)c(Cl)c3)CC12 (stereo not drawn) | -8.1 |
| Cc1ccc(-n2ccnc2)c(C(=O)NCCCN(C)C)c1 | 2 |
| CC(C)c1nc(C(=O)N2CCc3ccccc3C2C(=O)O)cs1 (stereo not drawn) | -2.12 |
| Cc1ccc(CN2CCN(c3ncccc3Cl)CC2CCO)cc1 (stereo not drawn) | -0.712 |
| Cc1[nH]ncc1C(=O)NCC(CO)Cc1ccc(Cl)cc1 (stereo not drawn) | -5.24 |
| CCOC[C@@H]1CC[C@H]2[C@H](CCN2C(=O)c2cnccn2)O1 | 2.78 |
| COCCN(c1ccncc1)S(=O)(=O)c1cc(C)c(F)cc1F | 15.9 |
| COc1ccc(NC(=O)CN2CCS(=O)(=O)CC2)cn1 | -10.4 |
| CC(=O)N1CCC2(CC1)C(=O)N(C)c1ccc(F)cc12 | -8.53 |
| Nc1ccc(C(=O)N2CCC(Oc3cccc(C(F)(F)F)c3)CC2)cn1 | -0.861 |
| Cc1nn(C)cc1C(=O)N1CCCn2nc(CN3CC[C@H](F)C3)cc2C1 | 6.52 |
| CN(CC(=O)Nc1cccc(F)c1)Cc1nc(N)nc(N(C)C)n1 | 1.01 |
| Cc1nc2sccn2c1CN(CCCN(C)C)Cc1ccccn1 | -8.06 |
| O=C(c1ccco1)N1CCCC12CCN(c1ncccn1)CC2 | -7.14 |
| CN(Cc1ccccn1)C(=O)c1nc(S(C)(=O)=O)n2ccccc12 | 1.32 |
| Cc1cc(C(=O)CN2C(=O)c3ccccc3CS2(=O)=O)c(C)[nH]1 | -6.26 |

| SMILES | cytotoxicity at 70.5 h [%] |
| --- | --- |
| Cc1nn(C)c2c(=O)n(Cc3ccc(Cl)cc3)nnc12 | -9.56 |
| COC(=O)c1ccc(-c2ccc(/C=C3\C(=O)NC(=N)N3C)o2)cc1 | 12.1 |
| CC(=O)N(Cc1ncc(C)o1)C1CCN(CCNC2CCCCC2)C1 (stereo not drawn) | 9.67 |
| CC(C(=O)N1CCCC1)N1CCC(c2nccn2CC2CCC2)CC1 (stereo not drawn) | -4.27 |
| c1ccc(Cc2nc(CNCCn3cccn3)cs2)cc1 | 1.06 |
| COc1cccc2c1CCN(C(=O)NCCc1nccn1C)C2 | -1.05 |
| CCN(CC)S(=O)(=O)c1ccc(CNC(=O)N2CCC(C#N)CC2)cc1 | -6.61 |
| COC(=O)N1CCC(Nc2cccc(F)c2C#N)CC1 | -3.28 |
| CCc1ccc(CN2CCCC(c3nn(C)c(=O)n3CC)C2)nc1 (stereo not drawn) | -9.19 |
| CN(C)[C@H]1CCCCN(C(=O)c2cccc(N3CCS(=O)(=O)CC3)c2)C1 | -8.16 |
| O=C1CCN(C(=O)CCc2ccc(Cl)cc2Cl)CCN1 | -6.13 |
| Cc1c(NC(=O)c2cnc[nH]2)cccc1C(=O)NC(C)(C)C | -5.11 |
| COCCN1CCC2(COCc3c(C)nc(N4CCOCC4)nc32)C1 (stereo not drawn) | -1.01 |
| Cc1nc(CN2CCCC(Cn3cc(CCO)nn3)C2)c[nH]1 (stereo not drawn) | -1.03 |
| O=C(c1ccco1)N1C[C@H]2CN(Cc3cccc(F)c3)C(=O)[C@H]2C1 | -7.79 |
| O=C(NCc1c(F)cccc1F)C1CN(C(=O)c2cnccn2)C1 | -6.6 |
| CNC(=O)[C@H]1C[C@@H]2CN(C(=O)c3ccc(C)nc3)C[C@@H]2N1C | -15.1 |
| CC(C)N(CC(N)=O)Cc1csc(Cc2ccccc2)n1 | 24.4 |
| O=C1C(N2CCN(c3ccc(O)cc3)CC2)CCN1C1CCOCC1 (stereo not drawn) | 24.5 |
| COCC(C)N1CCN(CCc2ccc3c(c2)CCO3)CC1 (stereo not drawn) | 21.8 |
| CC(=O)NC1CCCN(C(=O)CNc2cc(Cl)cc(Cl)c2)C1 (stereo not drawn) | -5.65 |
| CCCc1cc(N2CCC(NCC3(O)CCCCC3)CC2)nc(C)n1 | -8.99 |
| O=C(c1cnc(-c2ccccn2)s1)N1CCCC1Cn1cccn1 (stereo not drawn) | -8.6 |

| SMILES | cytotoxicity at 70.5 h [%] |
| --- | --- |
| CCN1CCN(C(=O)NC(C)c2noc(-c3ccccc3)n2)CC1 (stereo not drawn) | -6.34 |
| Cc1nn(C)c2nc(O)cc(C(F)(F)C(F)(F)F)c12 | 0.0459 |
| CCC(=O)N1CCCC(c2ncc3c(n2)CCN(C)C3)C1 (stereo not drawn) | -8.89 |
| CCOc1ccc(CN(CCC#N)CCN2CCOCC2)cc1OC | -0.151 |
| N#Cc1ccnc(N2CCN(CC(O)c3ccc(F)cc3F)CC2)c1 (stereo not drawn) | -3.3 |
| CN(C)C(=O)CO[C@H]1CN(Cc2ccsc2)[C@@H]2COC[C@H]12 | -1.85 |
| Cc1nc(CN2C(=O)CC3(CCN(C(N)=O)CC3)c3ccccc32)cs1 | -2.82 |
| COc1ccccc1CC(=O)NS(=O)(=O)c1ccc(C(N)=O)cc1 | -12.7 |
| CN(Cc1cncnc1)[C@@H]1CN(C(=O)C2CC2)[C@@H]2CCCO[C@H]12 | -3.07 |
| Cc1ccc(C(=O)NCCNc2ncccc2C#N)c(=O)[nH]1 | 20.6 |
| Cc1nc(-c2ccccc2)ccc1C(=O)N1CCn2c(C)nnc2C1 | -11.8 |
| O=C(NCCOc1ccc(C(F)(F)F)cn1)c1ccoc1 | -6.01 |
| CCc1ccc(OCC(=O)N2CCN(CC)CC2)cc1 | -6.61 |
| CCOCC(=O)NCCc1nc(C)cc(C(F)(F)F)n1 | -10.8 |
| Cc1nc[nH]c1-c1nccn1-c1cccc(CN2CCCC2)c1 | 13 |
| CN(Cc1ccsc1)Cc1nc(-c2ccncc2)no1 | 20.5 |
| CN(Cc1ccco1)Cc1ccccc1CNC(=O)c1c[nH]nn1 | -1.03 |
| C1CN(c2nc(C3CC3)no2)CCN(C2CCOCC2)C1 | -0.117 |
| CC(CN1CCCC1=O)NC(=O)c1ccc(-c2ccco2)[nH]c1=O (stereo not drawn) | -96.6 |
| NC(=O)c1cc(C2CCCN(Cc3ccc4c(c3)OCCO4)C2)n[nH]1 (stereo not drawn) | -22.9 |
| Cc1ccc(C)c(CS(=O)(=O)CC(=O)NC(C)c2ccc(F)cc2F)c1 (stereo not drawn) | 8.01 |
| O=C(N1CCCC(n2cncn2)C1)C1(c2ccc(Cl)cc2)CCC1 (stereo not drawn) | -7.28 |
| F[C@@H]1CN(CC2CCCCC2)C[C@@H]1OCc1nc2ccccc2o1 | 1.33 |

| SMILES | cytotoxicity at 70.5 h [%] |
| --- | --- |
| CN(Cc1cn2c(n1)CN(C1CCOCC1)CC2)Cc1ccco1 | 24.6 |
| CN1CCN(c2cccc(NC(=O)NCc3csc(N(C)C)n3)c2)C1=O | 35.3 |
| Cc1nn(C)c(N(C)C)c1CNCCC(=O)NC1CCCCC1 | -0.221 |
| CCc1cnc(N2C[C@@H]3[C@@H](C(=O)NCC(C)C)CCS(=O)(=O)[C@@H]3C2)nc1 | -5.83 |
| CCOc1ccc(CC(CNC(=O)c2sccc2C)C(N)=O)cc1 (stereo not drawn) | -1.61 |
| O=C(NCCN1CCCc2ccccc21)c1scnc1Cl | 10.6 |
| CN1CCOCC2(CCCN(C(=O)c3cn(C)cn3)C2)C1 (stereo not drawn) | 0.515 |
| COc1cccc2cc(CNCc3ccnc(N(C)C)c3)oc12 | 7.6 |
| CC(O)CN1CCC(CNCc2ccccc2F)CC1 (stereo not drawn) | -1.41 |
| CC(=O)c1ccc(CNC(=O)c2cc(C)nn2C)nc1C | 3.42 |
| CN(C)c1ccc(C(=O)NCc2csc(Br)c2)cn1 | -11 |
| COc1cnc(N2CCN(C)CC2)nc1-c1ccnn1C | -6.6 |
| COCc1ccccc1C(=O)N(C)Cc1ncc(C)c(OC)c1C | 19.4 |
| Cc1noc2ncc(C(=O)NCC3CCOC3)cc12 (stereo not drawn) | 22 |
| CN(C)c1cncc(C2CCCN2S(=O)(=O)c2cn(C)cn2)n1 (stereo not drawn) | 14.9 |
| Cc1cnn(CC2CCCN2C(=O)CCc2c(C)noc2C)c1 (stereo not drawn) | 12.1 |
| CC(=O)NCCOc1c(Cl)cccc1Cl | 28.8 |
| COCCn1ccnc1C1CCCN(C(=O)CSc2nnc(C)o2)C1 (stereo not drawn) | -5.99 |
| COCC(=O)N1CCO[C@H]2[C@H](OC)CC[C@@H]21 | -16.2 |
| CCNc1cc2c(nn1)CCN(C(=O)c1cc(C)no1)C2 | -3.88 |
| Nc1nc2nc(C3CCCN(C(=O)c4cscn4)C3)ccc2s1 (stereo not drawn) | 9.1 |
